Data reported in paper PMC7504721, “Targeting the Initiator Protease of the Classical Pathway of Complement Using Fragment-Based Drug Discovery” (Molecules, 2020).

Tested on: lectin pathway
Experiment: Lectin pathway-specific ELISA (mannan, C1q-depleted serum, C4b detection)
Type: biochemical, human
Conditions: single dose 500 µM, triplicate, 2% C1q-depleted serum
Experimental: Figure 5 Selectivity and mechanistic analysis of CMP-1611 and CMP-1696. (A) Chemical structure of CMP-1611. (B) Chemical structure of CMP-1696. (C) Dose-dependent inhibition by CMP-1611 and CMP-1696 in a classical pathway-specific ELISA. Data were fit with GraphPad Prism using non-linear regression with a log(inhibitor) vs. response model. […] (D) Complement pathway selectivity of CMP-1611 and CMP-1696. Compounds were assessed for their ability to inhibit activation of complement via the lectin and alternative pathways using single doses of 500 µM compound in triplicate. To ensure only lectin pathway activation, 2% (v/v) C1q-depleted serum (CompTech) was used and mannan was used as the activator. To match serum sources and amounts for this assay, the classical pathway assays were repeated here using serum from CompTech at 2% (v/v) final concentration. Alternative pathway activation assays were performed using 20% (v/v) serum (CompTech), alternative pathway buffers, and C3b detection (see Methods and Materials for details). […]
To carry out classical pathway ELISA-based inhibition assays, IgM was dissolved in coating buffer (100 mM Na2CO3/NaHCO3, pH 9.6) to a final concentration of 3 µg/mL and was dispensed into 96-well plates at 100 µL per well. […] The reaction was stopped with 50 µL of 0.16 M sulfuric acid, and the plate was read at 450 nm using an EnSight multimode plate reader (Perkin-Elmer). […]

Row | SMILES | inhibition of lectin pathway activation
1 | CN(C)c1cc(N2CCCC(N)C2)ncn1 (centres unmarked) [CMP-1611] | no effect
2 | COCc1nc(-c2ccc(OC3CNC3)cc2)no1 [CMP-1696] | blocked
